Data set [1] relates to HCT-116. The experiment in a line: Antiproliferative activity against human HCT-116 cells assessed as inhibition of cell proliferation incubated for 72 hrs by MTT assay. The class given is functional, cell-based. The note with it: HCT-116, 72 h. (Formazan colour is commonly taken as a measure of viable cells.)
The target of data set [2] is Histone deacetylase 1 (Homo sapiens, UniProt Q13547). The experiment in a line: Inhibition of HDAC1 (unknown origin).
Data set [3] deals with Histone deacetylase 2 (Homo sapiens, UniProt Q92769). The experiment in a line: Inhibition of HDAC2 (unknown origin).
Data set [4] deals with Histone deacetylase 3 (Homo sapiens, UniProt O15379). Kind of data set: Inhibition of HDAC3 (unknown origin).
Data set [5] addresses T1, Protein deacetylase HDAC6 (Homo sapiens, UniProt Q9UBN7).
T1 sequence (Q9UBN7 whole entry): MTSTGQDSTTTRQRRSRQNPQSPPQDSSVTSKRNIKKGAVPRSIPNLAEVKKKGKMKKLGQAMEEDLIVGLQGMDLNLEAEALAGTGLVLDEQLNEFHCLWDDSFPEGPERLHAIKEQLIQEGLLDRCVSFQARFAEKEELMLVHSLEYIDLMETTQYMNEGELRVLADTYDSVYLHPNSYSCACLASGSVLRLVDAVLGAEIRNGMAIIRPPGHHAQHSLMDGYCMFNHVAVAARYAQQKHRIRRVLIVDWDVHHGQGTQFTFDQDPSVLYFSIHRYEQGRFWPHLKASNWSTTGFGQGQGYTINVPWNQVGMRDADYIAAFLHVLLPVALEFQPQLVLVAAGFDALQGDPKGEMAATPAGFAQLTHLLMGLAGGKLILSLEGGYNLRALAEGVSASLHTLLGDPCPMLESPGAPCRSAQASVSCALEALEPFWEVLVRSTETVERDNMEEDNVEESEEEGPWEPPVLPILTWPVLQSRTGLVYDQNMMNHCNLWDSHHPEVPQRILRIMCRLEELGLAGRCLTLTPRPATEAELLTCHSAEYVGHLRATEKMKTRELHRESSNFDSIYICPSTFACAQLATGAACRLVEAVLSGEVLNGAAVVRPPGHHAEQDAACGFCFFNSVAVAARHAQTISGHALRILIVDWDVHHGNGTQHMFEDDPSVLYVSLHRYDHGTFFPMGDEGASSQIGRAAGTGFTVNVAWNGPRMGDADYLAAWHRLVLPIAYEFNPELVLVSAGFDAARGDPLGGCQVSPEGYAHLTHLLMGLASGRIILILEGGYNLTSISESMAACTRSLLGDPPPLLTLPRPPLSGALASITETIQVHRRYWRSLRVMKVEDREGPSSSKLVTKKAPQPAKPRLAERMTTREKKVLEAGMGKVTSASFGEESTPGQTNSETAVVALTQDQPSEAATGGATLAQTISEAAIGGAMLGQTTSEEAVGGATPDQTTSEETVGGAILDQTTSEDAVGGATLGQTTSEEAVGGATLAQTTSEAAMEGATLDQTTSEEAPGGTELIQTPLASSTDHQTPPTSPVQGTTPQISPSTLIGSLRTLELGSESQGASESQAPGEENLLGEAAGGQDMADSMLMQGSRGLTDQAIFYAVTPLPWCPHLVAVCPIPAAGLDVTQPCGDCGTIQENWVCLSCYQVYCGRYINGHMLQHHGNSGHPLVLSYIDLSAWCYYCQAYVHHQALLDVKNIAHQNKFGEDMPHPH
Kind of data set: Inhibition of HDAC6 (unknown origin).

Data set [6] addresses T2, Histone deacetylase 8 (Homo sapiens, UniProt Q9BY41).
T2 sequence (Q9BY41 whole entry): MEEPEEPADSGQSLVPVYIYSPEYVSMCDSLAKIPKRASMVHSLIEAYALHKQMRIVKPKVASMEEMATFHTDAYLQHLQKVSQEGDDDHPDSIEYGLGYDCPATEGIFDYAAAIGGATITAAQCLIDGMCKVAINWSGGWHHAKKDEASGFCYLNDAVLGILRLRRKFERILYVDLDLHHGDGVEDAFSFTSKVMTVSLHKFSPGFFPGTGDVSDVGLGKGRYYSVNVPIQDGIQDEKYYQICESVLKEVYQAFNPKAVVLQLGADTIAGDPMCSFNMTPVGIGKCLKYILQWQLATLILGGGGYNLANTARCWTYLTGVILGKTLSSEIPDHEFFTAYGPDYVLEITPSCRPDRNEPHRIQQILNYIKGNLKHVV
The experiment in a line: Inhibition of HDAC8 (unknown origin).

In data set [7] the test system is A549. Kind of data set: cells. Conditions: Homo sapiens, A549, 72 h. It counts as functional, cell-based.
Description: Antiproliferative activity against human A549 cells assessed as inhibition of cell proliferation incubated for 72 hrs by MTT assay
For data set [8], the system named is MCF7. Kind of data set: cells. The note with it: Homo sapiens, MCF7, 72 h. The class given is functional, cell-based.
Description: Antiproliferative activity against human MCF7 cells assessed as inhibition of cell proliferation incubated for 72 hrs by MTT assay
In data set [9] the test system is SW480. The experiment in a line: cells. Conditions: Homo sapiens, SW480, 72 h. The class given is functional, cell-based.
Description: Antiproliferative activity against human SW480 cells assessed as inhibition of cell proliferation incubated for 72 hrs by MTT assay
In data set [10] the test system is HCT-116. Kind of data set: Induction of apoptosis in human HCT-116 cells assessed as increase in number of brilliant blue apoptotic cells at 125 to 500 nM incubated for 48 hrs by Hoechst 33342 staining based fluorescence microscopic analysis. It counts as functional, cell-based. Conditions: dose 125-500 nM.
For data set [11], the system named is HCT-116. The experiment in a line: Inhibition of colony formation in human HCT-116 cell incubated for 48 hrs by crystal violet staining based analysis. The class given is functional. The note with it: dose 125-500 nM, DDE = dose-dependent effect.
The test system of data set [12] is HCT-116. The experiment in a line: Induction of apoptosis in human HCT-116 cells at 125 to 500 nM incubated for 48 hrs by AnnexinV-FITC/PI staining based flow cytometry. The class given is functional, cell-based. Conditions: dose 125-500 nM.
Data set [13] deals with HCT-116. The experiment in a line: Inhibition of cell migration in human HCT-116 cells incubated for 48 hrs by wound healing scratch assay. It counts as functional, cell-based. Conditions: dose 125-500 nM, DDE = dose-dependent effect.
Data set [14] can be described thus: in vitro. Conditions: human, L02 cells.
Description: Cytotoxicity against human L02 cells assessed as inhibition of cell proliferation incubated for 72 hrs by MTT assay

Drawing on ChEMBL document CHEMBL5143621, “Design, synthesis, and biological evaluation of β-carboline 1,3,4-oxadiazole based hybrids as HDAC inhibitors with potential antitumor effects” (Bioorg Med Chem Lett, 2022), this text covers IC50, Activity and inhibition for twelve compounds.

Molecules are shown by their SMILES. pIC50: −log10 of the molar value. Active and inactive are the calls of the source. The rule behind the calls is not given here.

Sequence of Histone deacetylase 1 (Q13547 whole entry): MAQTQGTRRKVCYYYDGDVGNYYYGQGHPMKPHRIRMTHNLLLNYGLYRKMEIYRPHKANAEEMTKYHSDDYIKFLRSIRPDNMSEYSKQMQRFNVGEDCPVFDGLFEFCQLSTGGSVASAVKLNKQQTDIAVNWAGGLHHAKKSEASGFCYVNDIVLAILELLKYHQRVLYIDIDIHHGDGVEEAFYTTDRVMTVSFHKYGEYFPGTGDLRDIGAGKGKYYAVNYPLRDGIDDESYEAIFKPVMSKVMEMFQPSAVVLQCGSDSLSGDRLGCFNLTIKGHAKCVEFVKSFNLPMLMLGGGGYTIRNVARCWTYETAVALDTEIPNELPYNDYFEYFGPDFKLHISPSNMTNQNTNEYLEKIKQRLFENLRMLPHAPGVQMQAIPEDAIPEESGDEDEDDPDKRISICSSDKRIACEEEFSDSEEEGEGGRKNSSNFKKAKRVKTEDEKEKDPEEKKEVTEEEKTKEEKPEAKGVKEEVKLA
Sequence of Histone deacetylase 3 (O15379 whole entry): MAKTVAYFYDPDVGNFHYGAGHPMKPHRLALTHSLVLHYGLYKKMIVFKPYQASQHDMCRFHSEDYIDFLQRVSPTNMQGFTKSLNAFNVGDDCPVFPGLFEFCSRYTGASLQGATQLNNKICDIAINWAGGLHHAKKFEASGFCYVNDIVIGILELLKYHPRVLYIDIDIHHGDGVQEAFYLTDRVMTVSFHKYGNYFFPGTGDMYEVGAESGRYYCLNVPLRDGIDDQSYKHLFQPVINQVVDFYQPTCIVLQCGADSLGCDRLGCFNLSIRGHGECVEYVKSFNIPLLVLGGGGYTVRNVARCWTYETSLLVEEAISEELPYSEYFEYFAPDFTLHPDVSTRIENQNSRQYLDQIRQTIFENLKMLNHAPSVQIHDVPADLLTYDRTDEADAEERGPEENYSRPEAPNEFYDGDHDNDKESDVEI
Sequence of Histone deacetylase 2 (Q92769 whole entry): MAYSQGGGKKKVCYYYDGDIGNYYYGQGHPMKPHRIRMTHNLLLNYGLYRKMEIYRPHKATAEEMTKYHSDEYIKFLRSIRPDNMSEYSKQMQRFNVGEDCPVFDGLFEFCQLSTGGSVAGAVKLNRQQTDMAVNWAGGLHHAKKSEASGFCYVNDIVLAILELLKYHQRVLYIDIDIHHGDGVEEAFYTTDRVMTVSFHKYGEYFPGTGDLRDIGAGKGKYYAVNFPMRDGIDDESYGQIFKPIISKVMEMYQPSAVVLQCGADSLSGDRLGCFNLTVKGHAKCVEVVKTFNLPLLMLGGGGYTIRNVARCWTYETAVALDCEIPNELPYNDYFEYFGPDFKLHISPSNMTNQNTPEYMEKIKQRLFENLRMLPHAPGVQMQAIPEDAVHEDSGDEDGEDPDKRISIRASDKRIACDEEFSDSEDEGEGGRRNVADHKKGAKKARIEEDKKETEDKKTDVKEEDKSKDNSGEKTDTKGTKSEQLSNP

For orientation: pIC50 means −log10 of the IC50, conventionally taken in molar units. With `O=C(CCc1nnc(-c2cc3c([nH]c4ccccc43)c(-c3ccccc3)n2)o1)NO`, in data set [1], the pIC50 was less than 5.00.

In the case of `O=C(NO)c1ccc(-c2nnc(-c3cc4c([nH]c5ccccc54)c(-c4ccc(C(F)(F)F)cc4)n3)o2)cc1`, in data set [1], the negative-log IC50 (pIC50) is 5.03.

For the compound `O=C(CCc1nnc(-c2cc3c([nH]c4ccccc43)c(-c3ccc(C(F)(F)F)cc3)n2)o1)NO`, the pIC50 in [1] was 5.64.

With `O=C(CCCc1nnc(-c2cc3c([nH]c4ccccc43)c(-c3ccc(C(F)(F)F)cc3)n2)o1)NO`, the pIC50 in data set [1] was 5.87.

The term IC50 denotes the concentration that gives 50% inhibition. A lower IC50 goes with greater potency. Take `O=C(CCCCc1nnc(-c2cc3c([nH]c4ccccc43)c(-c3ccc(C(F)(F)F)cc3)n2)o1)NO`: the pIC50 is 6.76 in data set [1]; 8.66 in data set [2]; 8.66 in data set [3]; 8.47 in data set [4]; 8.22 in data set [5]; less than 6.22 in data set [6]. For the same compound, the pIC50 is 5.76 in data set [7], 6.16 in [8] and 6.42 in data set [9]. For the same compound, the outcome in data set [10] and in data set [12] was Active. The inhibition result in data set [11] and in data set [13] was “Dde” in each case. The same compound came in with an IC50 at 72 h in data set [14] of more than 10000 nM.

As to `COc1cc(-c2nc(-c3nnc(CCCC(=O)NO)o3)cc3c2[nH]c2ccccc23)cc(OC)c1OC`, the pIC50 in data set [1] was 5.73.

Consider `Nc1ccccc1NC(=O)c1ccc(-c2nnc(-c3cc4c([nH]c5ccccc54)c(-c4ccc(C(F)(F)F)cc4)n3)o2)cc1`, for which the results for the pIC50 in data set [1] and in data set [2] were less than 5.00 and less than 6.22, respectively.

With `COc1cc(-c2nc(-c3nnc(CCCCC(=O)NO)o3)cc3c2[nH]c2ccccc23)cc(OC)c1OC`, the pIC50 in data set [1] is 6.72; in [2], 8.85; in data set [3] it was 8.92; in [4] it was 8.44; in data set [5], 8.14; in [6], less than 6.22. In addition, the pIC50 was 5.87 in data set [7] and 6.27 in data set [8].

Take `O=C(CCCc1nnc(-c2cc3c([nH]c4ccccc43)c(-c3ccccc3)n2)o1)NO`: in [1], the pIC50 was 5.14.

With `COc1cc(-c2nc(-c3nnc(-c4ccc(C(=O)NO)cc4)o3)cc3c2[nH]c2ccccc23)cc(OC)c1OC`, the negative-log IC50 (pIC50) in [1] was less than 5.00.

For the compound `O=C(CCCCc1nnc(-c2cc3c([nH]c4ccccc43)c(-c3ccccc3)n2)o1)NO`, the negative logarithm of the IC50 (pIC50) in [1] was 6.61; in data set [2] it was 8.92; in [7], more than 5.30; in data set [8], 5.42.

In the case of `COc1cc(-c2nc(-c3nnc(CCC(=O)NO)o3)cc3c2[nH]c2ccccc23)cc(OC)c1OC`, the pIC50 in data set [1] is 5.16.
